{"source": "patent US20230218573A1", "about": "“INDOLE COMPOUNDS FOR THE TREATMENT OF NEURODEGENERATIVE DISEASES” (GALYAN BIO, INC., priority 2020, published 2023)", "key": {"[1]": {"system": "Exon1 Q46", "experiment": "Circular dichroism of Exon1 Q46, predominantly α-helical state", "type": "biochemical", "conditions": "increasing doses", "method": "Protein samples were diluted with buffer to 7.5 µM prior to Circular Dichroism (CD) measurements. Measurements were conducted at room temperature.\nFour spectra at each measurement were taken every 1 nm from 200 to 260 nm, scanning at 50 nm/min with an averaging time of 1 sec. Spectra were obtained from samples in 20 mM phosphate, pH 7.4. Ten scans were averaged for each sample spectrum\nSingle-wavelength readings at 222 nm were obtained. After subtraction of the Trx contribution, the α-helical content of Httex1 was estimated from its mean residue ellipticity (MREHttex1) at 222 nm. This calculation was conducted as described by Bravo-Arredondo (Bravo-Arredondo, J.M. et al., J Biol Chem. 2018 Dec 21;293(51):19613-19623).\nMRE Exon-1 […] and Q46 (Mean Residue Ellipticity) was measured every 1 sec for 300 sec; the 301 readings for each sample were averaged and MRE Trx subtracted. The number of amino acids in each sample to experience a change in helicity was estimated using a previously developed helix-coil transition model, which gave the change in fraction of helicity (ΔfHelix) by the following equation: […]\nwhere MRE Exon1 Q26 or Q46 (MREHttex1 in the formula) describes the helix-coil transition, obtained from the difference between MRE Eon1 Q26 or Q46 at 222 nm of the fusion protein at the given temperature (in our case 37° C.) and the product of MRE Trx at 222 nm at the same temperature and the fraction of residues comprised by Trx in that particular construct, and\nIn order to calculate an equilibrium of the two states model, percent α-helicity was calculated using the relation of MREHttex1 = 0 and -34700 (deg cm^2 dmol^-1) for 0% and 100% helicity, respectively.\nThe CD measurements protocol for Compound 101 was the same as outlined above except that from 206 nm - 210 nm and 220 nm - 224 nm, the step size was 0.2 nm, and the bandwidth was 1 nm."}, "[2]": {"system": "R6/2 mice of Huntington's disease", "experiment": "Rotarod latency in R6/2 mice", "type": "in vivo", "conditions": "for rotarod performance versus vehicle treated R6/2 mice: 33 mg/kg i.p. QD", "method": "Methods - Total of 20 female and male R6/2 mice and 10 female and male wild-type littermate control mice (WT) were used in the study. The mice were genotyped and the R6/2 mice were divided into different treatment groups based on their litter and baseline body weight. The treatment with Vehicle or Compound 22(33 mg/kg; 5 ml/kg, i.p. QD) was started at 4 weeks of age after the baseline behavioral tests (FIG. 10). Body weights were measured at 3 weeks of age and twice a week until the end of the study.\nThe experimental groups were: • Group 1) 10 wild-type mice (mixed gender) treated with Vehicle (5 ml/kg, i.p., QD) starting at 4 weeks of age • Group 2) 10 R6/2 mice (mixed gender) treated with Vehicle (5 ml/kg, i.p., QD) starting at 4 weeks of age • Group 3) 10 R6/2 mice (mixed gender) treated with Compound 22 (33 mg/kg; 5 ml/kg, i.p. QD) starting at 4 weeks of age\n44.3.7 - Compound Delivery and Dosing - Treatment with Compound 22 (33 mg/kg; 5 ml/kg, i.p. QD) or Vehicle was started at age week 4 and continued until the 12 weeks of age. The test articles were handled and stored and the dose formulations were prepared according to detailed instructions provided by the Sponsor.\n44.3.9.1 - Rotarod - The Rotarod test was perfomed at 4 (pre-treatment baseline), 6, 8 and 10 weeks of age. Each testing day included a training trial of 5 min at 4 RPM on the Rotarod apparatus (AccuScan Instruments, Columbus, USA). 30 minutes later, the animals were tested for 3 consecutive accelerating trials of 6 min with the speed changing from 0 to 40 RPM over 360 seconds and with an inter-trial interval of at least 30 min. The latency to fall from the rod was recorded. Mice remaining on the rod for more than 360 s were removed and their time scored as 360 sec.\n10 female R6/2 mice and 10 female wild-type littermate control mice (F1 generation) were bred by Charles River Laboratories, Sulzfeld, Germany by mating (F0 generation) WT males (C57BL/6J; systematically re-infused with pedigreed JAX mice, stock 000664) with ovarian transferred (OT) TG females (JAX, stock 006494). […]"}, "[3]": {"experiment": "Microsomal stability in mice", "type": "in vitro ADME"}, "[4]": {"system": "Slc32a1", "experiment": "Nanostring gene expression in STHdh 111/111 cells: Slc32a1", "type": "cell-based, mouse", "conditions": "treated STHdh 111/111 (Q111-10), 48 h; in comparison to untreated STHdh 111/111", "method": "(§1) Gene expression of certain transcripts of interest were measured using Nanostring Technology. […] Some STHdh 7/7 and STHdh 111/111 cell samples were not heat shocked and some wells were treated with Compound 22 at the indicated concentration on for 48 hours (Table 12). Some STHdh 7/7 and STHdh 111/111 cell samples were heat shocked for 3 hours some wells were treated with Compound 22 at the indicated concentration on for 48 hours (Table 13). Cells are washed with PBS, trypsinised, and gathered in a 15 ml falcon tube. After a short spin down for 3 minutes at 300 g, the cell pellet was washed with PBS once, before it was frozen down in liquid nitrogen. RNA was extracted with a standard protocol. The nCounter® Mouse Neuropathology Panel (Nanostring, Seattle) was used for gene expression analysis according to the manufacturer’s protocols."}, "[5]": {"biological_target": "mHTT (Mus musculus, UniProt P42859, DEL28-30/G47A/INS49LLPQPQPP/INS60VA/L56P/P40L)", "sequence (P42859 with tags, fused parts or gaps DEL28-30/P40L/G47A/INS49LLPQPQPP/L56P/INS60VA)": "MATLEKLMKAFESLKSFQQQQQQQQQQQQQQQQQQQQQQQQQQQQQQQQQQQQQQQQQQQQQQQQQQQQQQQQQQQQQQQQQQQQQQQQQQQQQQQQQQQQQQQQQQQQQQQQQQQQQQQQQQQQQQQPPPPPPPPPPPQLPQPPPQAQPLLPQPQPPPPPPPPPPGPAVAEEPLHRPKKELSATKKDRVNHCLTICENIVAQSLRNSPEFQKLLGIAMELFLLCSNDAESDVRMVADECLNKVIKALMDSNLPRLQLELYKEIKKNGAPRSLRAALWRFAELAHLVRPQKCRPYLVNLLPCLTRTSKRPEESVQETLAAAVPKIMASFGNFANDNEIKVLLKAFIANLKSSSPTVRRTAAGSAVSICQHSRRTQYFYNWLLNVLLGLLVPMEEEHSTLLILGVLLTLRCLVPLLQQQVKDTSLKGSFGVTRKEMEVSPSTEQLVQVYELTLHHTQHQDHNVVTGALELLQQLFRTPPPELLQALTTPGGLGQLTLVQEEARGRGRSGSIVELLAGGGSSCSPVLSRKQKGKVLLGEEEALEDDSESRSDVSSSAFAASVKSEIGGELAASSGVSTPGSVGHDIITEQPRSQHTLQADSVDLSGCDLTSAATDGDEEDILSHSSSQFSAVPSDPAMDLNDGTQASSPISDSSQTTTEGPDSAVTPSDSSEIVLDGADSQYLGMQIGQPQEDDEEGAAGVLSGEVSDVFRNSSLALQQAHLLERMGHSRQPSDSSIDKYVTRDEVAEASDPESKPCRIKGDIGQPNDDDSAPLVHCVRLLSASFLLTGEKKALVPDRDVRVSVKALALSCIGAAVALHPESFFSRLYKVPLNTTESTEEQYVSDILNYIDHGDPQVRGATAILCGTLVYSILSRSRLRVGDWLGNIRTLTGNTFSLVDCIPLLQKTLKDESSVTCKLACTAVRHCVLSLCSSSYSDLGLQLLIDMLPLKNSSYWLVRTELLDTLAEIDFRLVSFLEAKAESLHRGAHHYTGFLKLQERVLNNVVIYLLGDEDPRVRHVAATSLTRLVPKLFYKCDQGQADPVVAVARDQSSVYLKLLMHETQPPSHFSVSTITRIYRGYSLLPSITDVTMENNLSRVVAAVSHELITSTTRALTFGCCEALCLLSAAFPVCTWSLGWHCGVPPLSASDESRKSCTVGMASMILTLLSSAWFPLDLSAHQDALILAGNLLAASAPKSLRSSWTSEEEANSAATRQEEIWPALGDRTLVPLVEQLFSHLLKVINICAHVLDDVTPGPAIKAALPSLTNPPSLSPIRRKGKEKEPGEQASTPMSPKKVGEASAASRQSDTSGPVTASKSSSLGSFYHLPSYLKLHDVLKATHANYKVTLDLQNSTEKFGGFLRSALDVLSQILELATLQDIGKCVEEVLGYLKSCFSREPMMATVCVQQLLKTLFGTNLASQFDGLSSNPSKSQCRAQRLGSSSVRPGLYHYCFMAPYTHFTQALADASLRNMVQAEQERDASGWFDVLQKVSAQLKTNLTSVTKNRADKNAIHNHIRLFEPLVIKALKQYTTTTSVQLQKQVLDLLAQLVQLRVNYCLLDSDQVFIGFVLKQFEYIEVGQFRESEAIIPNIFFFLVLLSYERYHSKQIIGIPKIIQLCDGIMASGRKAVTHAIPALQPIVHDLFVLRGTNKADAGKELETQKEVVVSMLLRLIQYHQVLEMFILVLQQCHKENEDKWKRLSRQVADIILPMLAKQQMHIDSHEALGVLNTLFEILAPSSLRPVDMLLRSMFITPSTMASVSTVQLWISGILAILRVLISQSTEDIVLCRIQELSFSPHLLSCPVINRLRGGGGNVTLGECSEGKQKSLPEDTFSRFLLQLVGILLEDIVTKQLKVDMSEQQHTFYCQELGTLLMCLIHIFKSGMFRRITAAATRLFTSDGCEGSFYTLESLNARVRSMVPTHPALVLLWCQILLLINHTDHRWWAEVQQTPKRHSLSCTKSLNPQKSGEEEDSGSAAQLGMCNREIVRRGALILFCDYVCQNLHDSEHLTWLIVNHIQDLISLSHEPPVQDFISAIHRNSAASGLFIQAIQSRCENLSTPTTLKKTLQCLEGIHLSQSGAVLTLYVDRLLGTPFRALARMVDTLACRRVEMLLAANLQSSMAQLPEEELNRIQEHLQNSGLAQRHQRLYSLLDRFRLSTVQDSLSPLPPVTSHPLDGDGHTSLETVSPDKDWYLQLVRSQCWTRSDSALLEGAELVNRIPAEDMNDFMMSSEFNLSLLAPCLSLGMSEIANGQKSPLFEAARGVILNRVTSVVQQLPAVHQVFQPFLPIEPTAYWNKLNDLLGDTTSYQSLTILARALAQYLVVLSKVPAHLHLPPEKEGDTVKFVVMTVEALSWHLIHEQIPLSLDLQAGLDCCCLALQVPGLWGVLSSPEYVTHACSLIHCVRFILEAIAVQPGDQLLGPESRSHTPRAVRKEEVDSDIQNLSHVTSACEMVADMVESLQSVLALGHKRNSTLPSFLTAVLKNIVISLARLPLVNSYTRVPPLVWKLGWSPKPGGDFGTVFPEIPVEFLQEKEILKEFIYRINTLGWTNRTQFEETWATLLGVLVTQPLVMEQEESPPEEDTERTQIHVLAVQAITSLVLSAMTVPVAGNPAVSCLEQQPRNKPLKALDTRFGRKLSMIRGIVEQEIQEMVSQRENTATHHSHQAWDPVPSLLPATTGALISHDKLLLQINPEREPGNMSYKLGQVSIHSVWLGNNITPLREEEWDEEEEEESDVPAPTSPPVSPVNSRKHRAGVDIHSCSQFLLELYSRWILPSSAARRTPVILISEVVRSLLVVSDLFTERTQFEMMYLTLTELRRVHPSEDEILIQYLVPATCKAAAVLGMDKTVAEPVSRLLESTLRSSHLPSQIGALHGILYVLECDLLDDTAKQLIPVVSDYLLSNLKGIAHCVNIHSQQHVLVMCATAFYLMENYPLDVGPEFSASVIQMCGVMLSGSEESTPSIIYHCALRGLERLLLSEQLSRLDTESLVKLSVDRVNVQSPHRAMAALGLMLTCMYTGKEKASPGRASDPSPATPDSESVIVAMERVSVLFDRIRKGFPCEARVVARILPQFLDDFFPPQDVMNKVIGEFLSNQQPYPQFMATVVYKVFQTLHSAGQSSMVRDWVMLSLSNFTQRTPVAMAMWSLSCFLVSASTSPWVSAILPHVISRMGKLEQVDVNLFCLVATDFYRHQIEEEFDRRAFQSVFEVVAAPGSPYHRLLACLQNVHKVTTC", "experiment": "Diffuse mHTT levels in heat shocked STHdh 111/111 striatal cells by immunocytochemistry", "conditions": "STHdh 111/111; in comparison to untreated cells", "experimental": "Pre-Treatment of striatal cell line - First the medium was removed and new DMEM (DMEM, high glucose, HEPES, no phenol red) medium, supplemented with 10% fetal bovine serum (FBS), 1% Penicillin-Streptomycin, containing 10 µM compound was added. The cells were incubated at 33° C. for 24 hours.\nHeat shock - Cells were heat shocked for 3 hours at 41° C.\nTreatment - Medium was removed and new DMEM (DMEM, high glucose, HEPES, no phenol red) medium, supplemented with 1% fetal bovine serum (FBS), 1% Penicillin-Streptomycin, containing 10 µM compound was added. The cells were incubated at 33° C. for 48 hours.\nStaining - Cells were permeabilized with 0.3% Triton X-100 in 4° C. PBS (pH 7.4 from ThermoFisher) for 10 minutes. Then the cells were washed two times with 4° C. PBS. Subsequently, cells are blocked with 3% NGS (normal goat serum from Thermo Fisher) in 4° C. PBS for 1 hour. Cells were incubated with primary antibodies in blocking buffer (PBS, 3% NGS, 0.02% NaN3) over night at 4° C. Primary antibodies were mouse antipolyglutamine monoclonal antibody 3B5H10 (Sigma-Aldrich) at 1:250 dilution and Guinea Pig anti-MAP2 polyclonal antibody (Synaptic Systems) at 1:500 dilution. 3B5H10 binds to diffuse mHTT. Diffuse mHTT is a monomeric and small oligomeric mHTT.\nCells were washed 2 times with 4° C. PBS, and then incubated with secondary antibodies at 1:2000 dilution in blocking buffer for 1 hour at room temperature. […] Cells were washed 2 times with 4° C. PBS, and then the nuclei were counterstain with DAPI (ThermoFisher) for 10 min at room temperature in the dark. Cells were washed 2 times with 4° C. PBS, and then 4° C. PBS was added to cells and then images were acquired.\nFluorescence Imaging - Imaging sessions were performed on a confocal microscope system (Carl Zeiss Microscopy) equipped with a dual spinning disk unit (Yokogawa). All components of the imaging system were controlled via the ZEN 2 software suite (Carl Zeiss Microscopy). The laser lines used were 405 nm, 488 nm and 639 nm to excite DAPI or the respective fluorophores. […] Nested t test was performed to calculate the significance amongst repeated measurements using GraphPad Prism software.\nST HDH Q7/7 (CH00097, Coriell Institute) striatal derived cell line from a knock in transgenic mouse containing HTT loci with a humanized Exon 1 containing 7 polyglutamine repeats.\nEC 50 value was determined with non-linear regression."}, "[6]": {"system": "Olig2", "experiment": "Nanostring gene expression in STHdh 111/111 cells: Olig2", "type": "cell-based, mouse", "conditions": "treated STHdh 111/111 (Q111-10), 48 h; in comparison to untreated STHdh 111/111", "method": "as §1"}, "[7]": {"experiment": "Pharmacokinetics, plasma and brain concentration by UHPLC-TOF", "type": "in vivo, mice", "method": "Compound 22 is an analog of Compound 7. […] Compound 22 pharmacokinetic properties was measured in three male CD1 mice at several timepoints. Compound 22 was dissolved in 10% DMSO, 10%, cremaphor, and 80% saline. The tested dose was 33.3 mg/kg body weight. Brain tissue was homogenized and protein precipitated with acetonitrile. […] As such, Compound 22 was selected for testing in an animal model of HD the R6/2 model. As described below, Compound 22 and its analogs were further tested for their effects on striatal cell viability and effects of mHTT levels."}, "[8]": {"experiment": "Microsomal stability in humans", "type": "in vitro ADME", "conditions": "humans versus mice"}}, "note": "“Also recorded” adds a separate entry of the source."}
{"smiles": "Cc1[nH]c2ccc(C(=O)NCCN(C(C)C)C(C)C)cc2c1C", "note": "[Compound 22]", "values": [{"measurement": "effect of increasing doses on the predominantly α-helical state of Exon1 Q46", "setting": "[1]", "result": "decreases the proportion of a predominantly α-helical state"}, {"measurement": "improvement of latency to fall in comparison to untreated model mice", "setting": "[2]; R6/2 mice, 10 weeks of age", "result": 94, "unit": "%"}, {"measurement": "rotarod performance versus vehicle treated R6/2 mice", "setting": "[2]; female R6/2 mice, 10 weeks of age, 33 mg/kg", "result": "significantly improved rotarod performance; also recorded: almost doubled the latency to fall"}, {"measurement": "rotarod performance versus vehicle treated R6/2 mice", "setting": "[2]; pooled genders or males", "result": "no significant differences"}, {"measurement": "microsomal stability", "setting": "[3]", "result": "short"}, {"measurement": "Slc32a1 expression upregulated", "setting": "[4]", "result": 12, "unit": "fold"}, {"measurement": "Nuclear diffuse mHTT reduced by", "setting": "[5]", "result": 32, "unit": "%"}, {"measurement": "Olig2 expression", "setting": "[6]", "result": "doubled"}, {"measurement": "penetration of the blood brain area in vivo", "setting": "[7]; male CD1 mice, 33.3 mg/kg body weight, 33.3 mg/kg", "result": "penetrates the blood brain area; also recorded: can penetrate the blood brain area in vivo"}, {"measurement": "crossing of the blood brain barrier", "setting": "[7]; mouse, in vivo", "result": "can cross the blood brain barrier"}, {"measurement": "microsomal stability in humans in comparison to mice", "setting": "[8]", "result": 20, "unit": "times"}]}
